From patent publication US9758788B2, “Mutagenesis of plants for overproduction of selective estrogen receptor modulators” (Naprogenix, Inc., priority 2014, dated 2017)

How the values were obtained:
transgenic hDAT 1°HRs = assay: Toxicity of DA-ergic toxins, trypan blue staining, transgenic hairy roots; details: for cells killed by toxin exposure: 24 h, 6-OHDA 50 uM, MPTP 100 μM, MPP+ 100 μM
Text: (§1) Trypan blue staining for toxicity was quantified using ImageJ software. […] Since MPTP is converted to the its cytotoxic metabolite, MPP+, by oxidases, biosynthesis of oxidase inhibitors would also confer a survival advantage if MPTP were chosen as a selection agent (monoamine oxidase inhibitors prevent MPTP toxicity in SH-SY5Y neuroblastoma cells).

Non-transgenic 1°HRs = assay: Toxicity of DA-ergic toxins, trypan blue staining, non-transgenic hairy roots; type: cell-based, Lobelia cardinalis; details: 6-OHDA 50 uM, MPTP 100 μM, MPP+ 100 μM
Text: as §1

alpha7 nicAChR = molecular target: T1, alpha7 nicAChR (Rattus norvegicus, UniProt Q05941); assay: nicAChR binding: inhibition of [3H]-MLA binding; details: alpha7 selective ligand
T1 construct: from tissue; host or cells: rat brain preparation (inferred)
Text: (§2) Lobinaline was purified from a methanol extract prepared from dried aerial portions of L. cardinalis. The methanolic extract was dried under vacuum, resuspended in water, and defatted with hexane. The hexane phase was removed, and the remaining aqueous phase was partitioned with chloroform. The chloroform phase was collected, dried under vacuum, and lobinaline was purified from this fraction by acid/base extraction to yield lobinaline of ˜95% purity (single peak and spectroscopic authenticity by GC-MS). This compound was then dissolved in DMSO and used in aqueous solution to evaluate its effects on the dopamine transporter and nicAChRs, both in rat brain preparations and in the human dopaminergic neuroblastoma cell line SH-SY5Y. Antioxidant activity of lobinaline was evaluated using the dipheny picryl hydrazyl free radical scavenging assay.
(§3) It is therefore relatively non-selective, whereas almost all known plant alkaloids are relatively selective for the […] nicAChR.

DAT = molecular target: T2, DAT (Rattus norvegicus, UniProt P23977); assay: [3H]-GBR12935 specific binding to rat striatal membranes
T2 construct: from tissue; host or cells: rat striatal membranes
Text: (§4) The low affinity binding of lobinaline to this site on the DAT may therefore not be directly related to its functional effect.

[1] = PubChem; cited from earlier work
[2] = molecular target: T3, dopamine transporter (DAT) (Rattus norvegicus, UniProt P23977); assay: [3H]-dopamine uptake into rat striatal synaptosomes; type: biochemical
T3 construct: from tissue; host or cells: rat striatal synaptosomes

[3] = DPPH free radical scavenging assay; details: read-out: IC50, inhibition of DPPH free radical activity
Text: as §2
Stable free radical diphenyl picryl hydrazyl (DPPH) scavenging was used to assess anti-oxidant activity.
Dried methanolic extracts prepared from individual L. cardinalis hairy roots were dissolved in assay buffer and tested for (a) concentration-dependent effects on [^3H]-DA uptake into rat striatal synaptosomes, (b) quenching stable DPPH radical, as measured by absorbance at 517 nm. The results are presented as “lobinaline equivalents” calculated from pure lobinaline concentration response curves (FIG. 1). […]

SH-SY5Y cells = assay: MPP+ toxicity on SH-SY5Y cells; type: cell-based, human
Text: as §2, §4

[4] = mice; compared with lobeline; cited from earlier work
nicAChRs [5] = assay: nicAChR binding: inhibition of [3H]-epibatidine binding; set-up: species or system rat; details: non-subtype selective radioligand
Text: as §2, §3

nicAChRs [6] = assay: [3H]-dopamine release from rat brain striatal slices; type: biochemical

T3 sequence (P23977 whole entry): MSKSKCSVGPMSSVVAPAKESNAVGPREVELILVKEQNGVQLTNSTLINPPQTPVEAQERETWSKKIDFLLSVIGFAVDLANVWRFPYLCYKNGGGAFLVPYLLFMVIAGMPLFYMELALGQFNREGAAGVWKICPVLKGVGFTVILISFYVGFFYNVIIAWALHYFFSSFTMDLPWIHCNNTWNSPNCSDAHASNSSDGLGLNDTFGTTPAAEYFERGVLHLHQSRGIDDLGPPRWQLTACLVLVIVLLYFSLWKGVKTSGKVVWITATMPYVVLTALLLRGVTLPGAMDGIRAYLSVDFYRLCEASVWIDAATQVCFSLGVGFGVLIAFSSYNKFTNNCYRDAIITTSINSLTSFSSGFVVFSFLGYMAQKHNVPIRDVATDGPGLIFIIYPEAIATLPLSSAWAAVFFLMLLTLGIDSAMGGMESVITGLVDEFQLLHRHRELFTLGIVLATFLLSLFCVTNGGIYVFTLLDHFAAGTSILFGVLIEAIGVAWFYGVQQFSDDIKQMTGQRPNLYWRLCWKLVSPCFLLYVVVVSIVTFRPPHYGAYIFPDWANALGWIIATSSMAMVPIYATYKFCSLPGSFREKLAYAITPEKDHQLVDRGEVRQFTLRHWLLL
T2 sequence (P23977 whole entry): as above
T1 sequence (Q05941 23-502): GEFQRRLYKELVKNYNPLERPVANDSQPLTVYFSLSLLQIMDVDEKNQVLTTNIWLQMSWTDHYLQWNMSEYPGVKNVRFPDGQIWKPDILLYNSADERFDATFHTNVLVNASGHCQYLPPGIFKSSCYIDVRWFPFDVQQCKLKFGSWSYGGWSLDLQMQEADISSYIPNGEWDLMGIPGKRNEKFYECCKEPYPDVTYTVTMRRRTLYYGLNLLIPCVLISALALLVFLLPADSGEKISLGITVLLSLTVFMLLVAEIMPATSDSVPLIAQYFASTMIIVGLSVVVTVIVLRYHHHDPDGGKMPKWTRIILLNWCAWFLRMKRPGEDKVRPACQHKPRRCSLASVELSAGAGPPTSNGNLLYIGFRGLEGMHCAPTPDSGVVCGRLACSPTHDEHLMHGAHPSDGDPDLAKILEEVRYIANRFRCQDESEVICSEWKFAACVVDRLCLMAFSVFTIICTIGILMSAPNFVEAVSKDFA

Q: With `NCCc1cc(O)c(O)cc1O` [6-OHDA] as the compound, how does the “cells killed by toxin exposure” value (transgenic hDAT 1°HRs) read?
A: The value was roughly 50%.

Q: And the “damage by toxin exposure” value (Non-transgenic 1°HRs)?
A: Its value is “not significantly damaged”.

Q: For `Fc1ccc(C(OCCN2CCN(CCCc3ccccc3)CC2)c2ccc(F)cc2)cc1` [GBR12909], which “inhibition of toxin cytotoxicity” value (transgenic hDAT 1°HRs; toxins 6-OHDA, MPTP or MPP+) is on record?
A: Its value is “inhibited”.

Q: For `C[n+]1ccc(-c2ccccc2)cc1` [MPP+], which “cells killed by toxin exposure” value (transgenic hDAT 1°HRs) is on record?
A: The value was roughly 50%.

Q: And the “damage by toxin exposure” value (Non-transgenic 1°HRs)?
A: The value was “not significantly damaged”.

Q: Which “cells killed by toxin exposure” value (transgenic hDAT 1°HRs) does the source give for `CN1CC=C(c2ccccc2)CC1` [MPTP] here?
A: The value was roughly 50%.

Q: And the “damage by toxin exposure” value (Non-transgenic 1°HRs)?
A: Its value is “not significantly damaged”.

Q: What does the source list for `CN1CCCC2C(c3ccccc3)C(C3=NCCCC3)C(c3ccccc3)CC21` (stereo not shown) [lobinaline]?
A: Ki (alpha7 nicAChR): 105 µM; inhibition of [3H]-GBR12935 specific binding (extent) (DAT): completely inhibited; Ki (DAT; read-out: Ki, inhibition of [3H]-GBR12935 specific binding): 89 µM; Hydrogen Bond Acceptors [1]: 2; Hydrogen Bond Donors [1]: 0; Log P [1]: 4.8; maximum inhibition of dopamine uptake [2]: 85.25%; IC50 ([2]; read-out: IC50, inhibition of [3H]-dopamine uptake): 12 µM; IC50 [3]: 21.1 µM; concentration inhibiting the toxicity of MPP+ (SH-SY5Y cells): ~100 µM; mammalian toxicity (LD50) [4]: low mammalian toxicity; Ki (nicAChRs [5]): 17.3 µM; effect on DA release induced by nicotine (nicAChRs [6]; 10 μM nicotine): reduced the DA release

Q: With `CNC1(C)C2CCC(C2)C1(C)C` (stereo not shown) [mecamylamine, reference compound] as the compound, how does the “inhibition of the initial phase of [3H] release caused by the lobinaline-containing fraction” value (nicAChRs [6]; 10 μM mecamylamine) read?
A: Its value is “almost completely inhibited”.

Q: Which IC50 [3] does the source give for `O=c1c(O)c(-c2ccc(O)c(O)c2)oc2cc(O)cc(O)c12` [quercetin, reference compound] here?
A: The IC50 was 11.2 µM.
